Marks after values point to notes of the source that are not given here.
Legend:
S. aureus biofilm = assay: Biofilm formation assay; type: cell-based; conditions: Staphylococcus aureus, 18 h, read-out: inhibition of biofilm formation compared with the untreated group
Description: Overnight cultures of S. aureus were diluted 1:100 in BHI media with or without Sal A to an OD600 of 0.6. Then, 5 µl of the bacterial culture was added to 195 µl BHI media with or without Sal A in a 96-well plate. The plate was incubated at 37°C for 18 h to form a biofilm, which was then quantitated as described previously.

A549 cells = assay: Invasion assay (internalization of S. aureus into A549 cells); type: cell-based; conditions: CFU count
Description: The assay of the internalization of S. aureus into A549 cells was performed as described. Briefly, 3 × 10^5 A549 cells were plated in each well of a 24-well plate and incubated at 37°C in 5% CO2 for 12 h. S. aureus was grown in BHI broth with or without Sal A to an OD600 of 1.0. Then, the bacterial suspension was added to the plate and incubated for 1 h. The bacterial suspension was discarded, and the A549 cells were washed three times with PBS and treated with DMEM containing 300 μg/ml gentamycin. After incubation for 2 h, the plates were washed three times, and the cells were lysed with sterile distilled water. The lysates were diluted 100-fold in PBS and spread onto BHI agar plates in triplicate. The plates were incubated at 37°C for 12 h, and the number of colony-forming unit (CFU) was determined by manual counting.

A92L-SrtA = tested on: T1, A92L-SrtA; assay: Fluorescence quenching assay, A92L-SrtA; type: binding, S. aureus; conditions: fluorescence spectroscopy quenching
T1 construct: The gene encoding SrtA (lacking the N-terminal transmembrane domain (N1–59)); 6xHis (N); made in house
Description: (§1) The fluorescence quenching assay was performed as previously described. Briefly, purified SrtA and mutant protein were diluted to 500 ng/ml with PBS. A total of 2.5 ml diluted protein solution was mixed with Sal A at different concentrations ranging from 0 to 4.5 μg. After incubation for 10 min, the fluorescence spectra of the mixed solutions were measured using a fluorescence spectrophotometer (RF5301, Japan). For the fluorescence measurement, the excitation and emission slits were set at 5.0 nm, the excitation wavelength was set at 280 nm, and fluorescence emission spectra in the range of 290–500 nm were scanned; the fluorescence intensity at 340 nm was recorded. All assays were performed in triplicate.

[1] = tested on: S. aureus protein A (SpA); assay: Flow cytometry of FITC-IgG-stained S. aureus (SpA anchoring); type: cell-based; conditions: untreated WT 108.58
Description: To quantify the effect of the Sal A on the anchoring of SpA, the FITC-IgG-stained S. aureus was measured by flow cytometry. S. aureus strains were grown overnight and then were diluted 1:100 in BHI broth with or without Sal A and grown until the OD600 reached 1.0. Then, bacteria were harvested by centrifugation at 2,500 × g for 10 min. The collected pellets were washed once with PBS and were incubated in PBS solution containing 0.2% BSA (wt/vol) for 10 min. Afterward, bacteria were washed thrice and then suspended in PBS containing FITC-labelled rabbit anti-goat-IgG at a dilution of 1:50 and incubated at 37°C in the dark for 60 min. After a thorough washing, bacteria were fixed with formaldehyde (2%, vol/vol) for 10 min at room temperature. Fluorescence signal was detected on a FACSCanto flow cytometer (Becton Dickinson, USA) and analyzed using FACSDiva software.

SrtA [2] = assay: Western blot of SrtA expression; type: cell-based, S. aureus; conditions: 256, 128, 64, or 32 μg/ml, Western blot with grayscale analysis
Description: The dissolved cell wall proteins and cytoplasmic membranes were obtained according to a previously reported method. Equal volumes of protein extract were separated using a 12% SDS-PAGE gel, and the proteins were transferred onto polyvinylidine difluoride membranes (Wako Pure Chemical Industries, Ltd., Osaka, Japan). After blotting, the membrane was blocked with 5% BSA for 2 h and probed with primary antibodies against S. aureus SrtA overnight at 4°C. Next, the membrane was washed and incubated with HRP-labelled goat anti-rabbit IgG. After washing again with PBS, the immunoreactive bands were visualized by an ECL Western blot detection system (GE Healthcare, UK). The primary antibodies against S. aureus SrtA were produced in-house by our team members. The secondary HRP-labelled goat anti-rabbit IgG antibody was obtained from Proteintech (Chicago, USA).

R197A-SrtA = tested on: T2, R197A-SrtA; assay: Fluorescence quenching assay, R197A-SrtA; type: binding, S. aureus; conditions: fluorescence spectroscopy quenching
T2 construct: The gene encoding SrtA (lacking the N-terminal transmembrane domain (N1–59)); 6xHis (N); made in house
Description: as §1

[3] = tested on: adhesion of S. aureus to fibrinogen; assay: Fibrinogen binding assay; type: cell-based; conditions: bovine fibrinogen coated plate, crystal violet
Description: Overnight cultures of S. aureus were subcultured into fresh medium with or without Sal A and then grown until the OD600 reached 0.5. Then, 100 μl of the bacterial culture was transferred into each well of a polystyrene 96-well plate coated with 20 μg/ml bovine fibrinogen and incubated for 2 h at 37°C. The cell suspension was discarded, and the wells were rinsed twice with PBS. Then, 25% formaldehyde was added and incubated for 30 min, and the plate was washed three times and stained with crystal violet dye (12.5 g/l). The binding of S. aureus to fibrinogen was quantitated as described previously. The data are presented as the mean ± SEM from three separate experiments.

SrtA [4] = molecular target: T3, SrtA (Staphylococcus aureus, UniProt Q2FV99); assay: Biolayer interferometry assay; type: binding, S. aureus
T3 construct: The gene encoding SrtA (lacking the N-terminal transmembrane domain (N1–59)); made in house
T3 sequence (Q2FV99 60-206): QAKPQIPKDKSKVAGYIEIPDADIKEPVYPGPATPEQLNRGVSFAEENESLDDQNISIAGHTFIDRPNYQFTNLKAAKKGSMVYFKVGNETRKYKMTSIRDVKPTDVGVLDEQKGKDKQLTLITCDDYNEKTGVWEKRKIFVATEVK
Description: The kinetics of the binding of Sal A to SrtA were determined by a biolayer interferometry (BLI) assay using the Octet RED96 system (ForteBio, Inc., Menlo Park, CA) as described previously. Ni-NTA sensors were used to bind the His-tag SrtA protein. The assay buffer used was PBS containing 0.1% bovine serum albumin and 0.02% Tween-20, pH 6.5. Before the assay was performed, the Ni-NTA sensors were pre-wetted in assay buffer for 10 min, and then the Ni-NTA sensors were flushed with buffer for 60 s to generate the baseline. SrtA was immobilized on the surface of the sensor tip by incubating it in […] protein solution for 3600 s. The excess protein was removed by washing the sensor with buffer for 300 s. Subsequently, the sensor was exposed to a cycle of 60 s for the baseline step, 200 s for the association step and 100 s for the dissociation step in different concentrations of Sal A solution (250, 125, 62.5, 31.25 and 15.625 μM). The binding of the sensor to protein without the loading of Sal A served as a control. The data were processed using the double reference subtraction method in Forte Bio analysis software (v6.4).

[5] = tested on: S. aureus protein A (SpA); assay: SpA-related fluorescence analysis (confocal microscopy); type: cell-based; conditions: 256 μg/ml, FITC-labelled IgG
Description: An overnight culture of S. aureus was diluted 1:100 in BHI broth with or without Sal A and grown until the OD600 reached 1.0. After centrifugation at 2,500 × g for 10 min, the bacterial pellets were fixed with 4% formaldehyde solution for 30 min. After washing three times with PBS, 5% BSA was added for blocking, and the bacteria were incubated for 20 min. Then, the bacteria were rinsed with PBS and resuspended in PBS containing FITC-labelled rabbit anti-goat-IgG (Sigma) at a dilution of 1:50 and incubated at 37°C for 3 h. After washing three times with PBS, the bacteria were placed onto poly-lysine-coated glass slides, and the SpA on the cell surface was visualized by confocal microscopy (Zeiss, LSM 880).

I182A-SrtA = tested on: T4, I182A-SrtA; assay: Fluorescence quenching assay, I182A-SrtA; type: binding, S. aureus; conditions: fluorescence spectroscopy quenching
T4 construct: The gene encoding SrtA (lacking the N-terminal transmembrane domain (N1–59)); 6xHis (N); made in house
Description: as §1

Q: O=C(/C=C/c1ccc(O)c(O)c1/C=C/c1ccc(O)c(O)c1)O[C@H](Cc1ccc(O)c(O)c1)C(=O)O [Sal A, (2R)-3-(3,4-Dihydroxyphenyl)-2-[(E)-3-[2-[(E)-2-(3,4-dihydroxyphenyl)ethenyl]-3,4-dihydroxyphenyl]prop-2-enoyl]oxypropanoic acid] was tested. Which inhibition at 256 µg/mL (S. aureus biofilm) did it give?
A: 33.1%

Q: What about the “number of bacteria entering the cells compared to the control group” value (A549 cells) of the same compound?
A: significant reduction

Q: What about the KA (A92L-SrtA) of the same compound?
A: 3.78 (1 × 10^4) l/mol

Q: What about the “mean value of fluorescence yield (Marker: All)” value [1] of the same compound?
A: 13.64

Q: And the “expression of SrtA” value (SrtA [2])?
A: did not impact the expression

Q: And the KA (R197A-SrtA)?
A: 2.22 (1 × 10^4) l/mol

Q: What about the “adhesion of S. aureus to fibrinogen” value [3] of the same compound?
A: inhibited the adhesion of S. aureus to fibrinogen in a dose-dependent manner

Q: What about the Kd (SrtA [4]) of the same compound?
A: 21.5 µM

Q: What about the koff (SrtA [4]) of the same compound?
A: 0.0138 s⁻¹

Q: What about the kon (SrtA [4]) of the same compound?
A: 582 M⁻¹ s⁻¹

Q: And the “level of green fluorescence (SpA on surface) compared with the WT group” value [5]?
A: considerably reduced

Q: What about the KA (I182A-SrtA) of the same compound?
A: 1.03 (1 × 10^4) l/mol

Source: paper PMC7006784, “The combination of salvianolic acid A with latamoxef completely protects mice against lethal pneumonia caused by methicillin-resistant Staphylococcus aureus” (Emerging Microbes & Infections, 2020)
